Where two headings read alike, the source gives them in different places.
What was measured:
[1] = tested on: endopeptidase activity in cotton leaves; test: Radial Diffusion Assay (RDA) of endopeptidase activity in cotton plants; format: in vivo, cotton (cv. Sicala V2i); details: for Endopeptidase activity, cv. V2i Bt PBO: U = trypsin equivalents
Protocol: The […] of the clear zone produced by the plant extracts was compared to a standard curve obtained by a serial dilution of trypsin. A standard solution of trypsin was used to plot a standard curve for each sample plate, thus the endopeptidase activity was expressed as units of trypsin equivalents. For each extract, the amount of soluble proteins in mg was determined by the Biuret method and the enzymatic activity was then expressed as specific activity i.e. Units/mg soluble proteins. Abscissa: time (days); ordinate: trypsin units/mg soluble protein.
The samples were collected at different development stages of plants, which were: […], 60 and 85 days after sowing. These samples were also analysed for determining the Bt content (as described in example 4). To this aim, the enzymatic activity was tested on crude freeze dried leaf extracts with two different assays: the Radial Diffusion Assay (RDA), in which a protein, such as the bovine gelatine, was used as a substrate to test the endopeptidase activity, and a photometric assay described in the next example, in which DL-BAPA was used as a substrate, to determine a general peptidase activity.
A powder aliquot, which represents each step of plant growth, of the treated and controls samples was extracted in two steps. The powder sample was extracted with buffer 0.1 M Tris-HCl pH 7.7 (1:20 w/v) using an Ultraturrax blender at 24,000×RPM for 2 min in a ice bath to avoid overheating. […] The clear supernatant was collected and filtrated with Whatman paper no 4. The pellet was further extracted with the same procedure, with the exception that in this case the extraction ratio was 1:10 (w/v). Finally, the supernatants of the two extractions processes were joined and then concentrated 4-5 times by centrifugation at 3,000×g at 15° C. for 2 hours, using suitable concentrators (Amicon Inc. Beverly, Mass.—USA), fitted with a membrane of 10 κD cut off.
For each extract, the amount of soluble proteins was determined by the Biuret method and the enzymatic activity was then expressed as specific activity i.e. Units/mg soluble proteins.
RDA was performed as described in Santarius, K. and Ryan, C., Anal. Biochem., 1977, 77: 1-9 in Petri dishes containing bovine gelatine as substrate, dispersed in agar gel. Each dish contained 5 wells of which 4 were filled with suitable aliquots of concentrated cotton extracts, whereas one was filled with a bovine β-trypsin as standard solution (0.2 U/ml). The dishes were covered and sealed with a plastic film to avoid evaporation and then incubated at 37° C. for 16 hours.
The enzymatic activity in the protein-agar gel produced a clear radial diffusion zone around each circular wells, due to the bovine gelatine proteolysis against an opaque background.
The trypsin equivalents were calculated by measuring the radii of the clear zones produced by the plant extracts and compared to a standard curve obtained by a serial dilution of trypsin. Each dish contained a standard solution of trypsin that was used to plot a standard curve for each plate, thus the endopeptidase activity was expressed as units of trypsin equivalents.
Each analysis was performed in quadruplicate. […] In table 6 are shown the differences between treated and untreated cotton samples as percentages.

bromelain = bromelain (Ananas comosus, UniProt P14518); test: biochemical
Sequence of bromelain (P14518 whole entry): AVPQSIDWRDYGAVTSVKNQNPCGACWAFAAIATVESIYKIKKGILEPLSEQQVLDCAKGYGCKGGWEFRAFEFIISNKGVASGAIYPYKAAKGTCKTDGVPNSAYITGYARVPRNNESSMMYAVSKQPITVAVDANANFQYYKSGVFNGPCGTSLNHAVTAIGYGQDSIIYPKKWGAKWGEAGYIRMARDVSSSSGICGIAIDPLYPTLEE
Protocol: Reverse micelles assay of ISO-AOT 50 mM (AOT: twin aerosol (2-ethylhexylsodiumsulfosuccinate in isooctane (ISO)); Wo (H2O/AOT)=28
The assays were carried out in the reverse-micelles assay dispersed in organic solvent, described by Walde et al. in Eur. J. Biochem., 1988, 173:401-409, and already reported in the literature in kinetic studies of the inhibition of trypsin with natural and synthetic inhibitors. […]
The enzyme assay on reverse-micelle has been already described in the literature for the enzyme trypsin and was adapted to different enzymes. […] To this solution was added an appropriate volume of substrate CBZ (dissolved in acetonitrile/H2O, 80:20 (v/v) at a concentration of 15 mM) and following further agitation (the solution returned to being transparent), the change in absorbance was measured (Dabs) at 340 nm with a Cary 219 spectrophotometer.
The experimental data obtained are represented graphically in the form of Dixon-plot (described for example in: “Quantitative Problems in Biochemistry”, E A. Dawes, 5th ed. 1972 Baltimore, The Williams and Wilkins Company), in the FIGS. 1, 2 and 3.

[2] = tested on: carboxypeptidase activity in cotton sprouts; details: for absorbance at 280 nm, Exp. n° 1, PBO Treated Cotton Sprouts / absorbance at 280 nm, Exp. n° 2, PBO Treated Cotton Sprouts / absorbance at 280 nm, Mean, PBO Treated Cotton Sprouts / Carboxypeptidase Activity (U), PBO Treated Cotton Sprouts: pH 6.5; for absorbance at 280 nm, Exp. n° 1, PBO Treated Cotton Sprouts / absorbance at 280 nm, Exp. n° 2, PBO Treated Cotton Sprouts / absorbance at 280 nm, Mean, PBO Treated Cotton Sprouts / % difference of carboxypeptidase activity, treated vs untreated / Δ U (carboxypeptidase activity, untreated vs PBO treated) / Carboxypeptidase Activity (U), PBO Treated Cotton Sprouts: 4th day of germination, PBO 1% w/v
Protocol: The extent of proteolytic activity in cotton sprouts was measured at 30′, 60′, 90′ and […] after suspension of the acetonic powder in aqueous buffer at pH 6.5 by determining the absorbance at 280 nm in a quartz cuvette, after protein precipitation with TCA and removal by centrifugation.
Each series of analysis was performed in duplicate. The comparison between the values of carboxypeptidase activity of treated and untreated samples was done using the average value of each series of analysis.
The basic idea was to “freeze” the physiologic protein hydrolysis enzymatic activity and to re-establish the process simply solubilizing the proteolytic enzymatic system in suitable buffers, which were 0.1 M phosphate pH 6.5 and 0.1 M tris-HCl pH 7.7, for evaluating both the carboxypeptidase and the endopeptidase activities according to the method described by Hile et al. 1972; Funkhouser et al. 1980.
Cotton seeds (cv. Carmela) were obtained from “Semillas Battle”, Barcelona (E).
The seeds were previously rinsed in tap water and then imbibed with aeration in distilled water over night (Funkhouser, E. A. et al., Z. Pflanzenphysiol., 1980, 100, 319-324).
The plastic boxes containing seeds were covered by a plastic film and placed in a germinator in the dark for 4 days at 30° C. as described in Hile, J. N. and Dure, L. S. J. Biol. Chem., 1972, 247: 5034-5040.
The cotton sprouts of 4 days were collected and frozen in liquid nitrogen and freeze dried (Hile et al. 1972). After this process, the material was crushed in a pestle and freed from fibrous material and settled up to obtain a pretty homogeneous meal of about 0.5 mesh.
The meals were defatted using n-hexane (1:10 w/v) at room temperature and then treated with acetone at −20° C. to remove pigments and polyphenolic compounds, in this case mainly gossypol. The powders obtained were stored in a dry box at room temperature.
The acetonic powder (30 mg) was suspended in buffer (4 ml) and incubated at 37° C. for 30, 60, 90, 120 minutes. The proteolysis was stopped adding 1 ml of 12% trichloroacetic acid. In this case, the buffer used was 0.1 M phosphate pH 6.5 (Hile et al. 1972). The control was a suspension of the same sample prepared in the same way but, in this case, it was immediately deactivated, adding 1 ml of trichloroacetic acid. The trials with treated and untreated samples were carried out at the same time.
Proteins were precipitated with trichloroacetic acid and then removed by filtration, before with Whatman paper n. 4 and then by micro-filtration (Orange Scientific Braine I'Alleud, Belgium (Ø0.2 μm)). Finally, the hydrolyzed protein samples were analyzed as clear solutions by determining the absorbance at 280 nm in a quartz cuvette.
Each series of analysis was performed twice. The comparison between the values of carboxypeptidase activity of treated and untreated samples was done using the average value of each series of analysis.

[3] = Time 0 (immediately deactivated)

SMILES: CCCCOCCOCCOCc1cc2c(cc1CCC)OCO2 [PBO, 5-[[2-(2-Butoxyethoxy)ethoxy]methyl]-6-propyl-1,3-benzodioxole]
- Difference % Treated minus untreated (endopeptidase, RDA) ([1]; 4 days after sowing): 9.15%
- Endopeptidase activity, cv. V2i Bt PBO ([1]; 4 days after sowing): 5.90 U/mg protein
- Difference % Treated minus untreated (endopeptidase, RDA) ([1]; 35 days after sowing): −5.35%
- Endopeptidase activity, cv. V2i Bt PBO ([1]; 35 days after sowing): 8.04 U/mg protein
- Difference % Treated minus untreated (endopeptidase, RDA) ([1]; 60 days after sowing): −39.31%
- Endopeptidase activity, cv. V2i Bt PBO ([1]; 60 days after sowing): 4.07 U/mg protein
- Difference % Treated minus untreated (endopeptidase, RDA) ([1]; 85 days after sowing): −16.42%
- Endopeptidase activity, cv. V2i Bt PBO ([1]; 85 days after sowing): 4.14 U/mg protein
- IC50 (bromelain): 400 µM
- Ki (bromelain): 100 µM
- proteolytic activity related to carboxypeptidase in treated samples ([2]; FIG. 4, treated vs untreated cotton sprouts): lower than in the untreated ones
- absorbance at 280 nm, Exp. n° 1, PBO Treated Cotton Sprouts [2, 3]: 0.632
- absorbance at 280 nm, Exp. n° 2, PBO Treated Cotton Sprouts [2, 3]: 0.729
- absorbance at 280 nm, Mean, PBO Treated Cotton Sprouts [2, 3]: 0.68
- % difference of carboxypeptidase activity, treated vs untreated ([2]; Time 30′): 55.7%
- Δ U (carboxypeptidase activity, untreated vs PBO treated) ([2]; Time 30′): 0.083 U
- Carboxypeptidase Activity (U), PBO Treated Cotton Sprouts ([2]; Time 30′): 0.066 U
- absorbance at 280 nm, Exp. n° 1, PBO Treated Cotton Sprouts ([2]; Time 30′): 0.730
- absorbance at 280 nm, Exp. n° 2, PBO Treated Cotton Sprouts ([2]; Time 30′): 0.763
- absorbance at 280 nm, Mean, PBO Treated Cotton Sprouts ([2]; Time 30′): 0.746
- % difference of carboxypeptidase activity, treated vs untreated ([2]; Time 60′): 39.3%
- Δ U (carboxypeptidase activity, untreated vs PBO treated) ([2]; Time 60′): 0.081 U
- Carboxypeptidase Activity (U), PBO Treated Cotton Sprouts ([2]; Time 60′): 0.125 U
- absorbance at 280 nm, Exp. n° 1, PBO Treated Cotton Sprouts ([2]; Time 60′): 0.752
- absorbance at 280 nm, Exp. n° 2, PBO Treated Cotton Sprouts ([2]; Time 60′): 0.858
- absorbance at 280 nm, Mean, PBO Treated Cotton Sprouts ([2]; Time 60′): 0.805
- % difference of carboxypeptidase activity, treated vs untreated ([2]; Time 90′): 43.5%
- Δ U (carboxypeptidase activity, untreated vs PBO treated) ([2]; Time 90′): 0.087 U
- Carboxypeptidase Activity (U), PBO Treated Cotton Sprouts ([2]; Time 90′): 0.113 U
- absorbance at 280 nm, Exp. n° 1, PBO Treated Cotton Sprouts ([2]; Time 90′): 0.880
- absorbance at 280 nm, Exp. n° 2, PBO Treated Cotton Sprouts ([2]; Time 90′): 0.838
- absorbance at 280 nm, Mean, PBO Treated Cotton Sprouts ([2]; Time 90′): 0.859
- % difference of carboxypeptidase activity, treated vs untreated ([2]; Time 120′): 61.0%
- Δ U (carboxypeptidase activity, untreated vs PBO treated) ([2]; Time 120′): 0.158 U
- Carboxypeptidase Activity (U), PBO Treated Cotton Sprouts ([2]; Time 120′): 0.101 U
- absorbance at 280 nm, Exp. n° 1, PBO Treated Cotton Sprouts ([2]; Time 120′): 0.775
- absorbance at 280 nm, Exp. n° 2, PBO Treated Cotton Sprouts ([2]; Time 120′): 0.787
- absorbance at 280 nm, Mean, PBO Treated Cotton Sprouts ([2]; Time 120′): 0.781

Source: patent publication US8017557B2, “Benzodioxole derivatives as modulators of proteolytic activity in plants” (Endura S.p.A., priority 2002, dated 2011)
